Assay [1] deals with Mycolicibacterium smegmatis. The assay is described as follows: Antimicrobial activity against Mycobacterium smegmatis under aerobic condition for 36 hrs by MTT assay. It is filed as functional.
Assay [2] relates to Mycolicibacterium smegmatis. The assay is described as follows: Antimicrobial activity against Mycobacterium smegmatis under dormancy-inducing hypoxic condition for 96 hrs by MTT assay. It counts as functional.

Values after ≈ are worked out from the molar mass of the structure shown.

As usually defined, the MIC is the smallest concentration in the dilution series that meets the test's criterion for growth inhibition. Higher therefore signals a need for much substance. Consider `COC(c1ccc(O)cc1)C1NC(=O)[C@H](CCC(N)=O)N(C)C(=O)[C@H](CC(C)C)NC(=O)[C@@H](CCCNC(=N)N)NC(=O)[C@@H]([C@@H](C)O)NC(=O)[C@H](NC(=O)C(NC(=O)[C@H](O)[C@H](O)[C@H](CCCNC(=N)N)NC(=O)[C@@H](CC(N)=O)NC(=O)C(C)C(O)C(C)CC(C)C)C(C)C(C)C(N)=O)[C@@H](C)OC(=O)[C@@H]2CCCCN2C1=O` (some centres not stated) [NEAMPHAMIDE B], for which the minimal inhibitory concentration (MIC) in assay [1] and in assay [2] was 1.56 µg/mL (≈ 0.991 µM) throughout.

These data come from ChEMBL document CHEMBL2046425, “Neamphamide B, new cyclic depsipeptide, as an anti-dormant mycobacterial substance from a Japanese marine sponge of Neamphius sp” (2012).
